Values quoted from earlier work in patent US8440424B2, “Identification of antibiotic resistance using labelled antibiotics” (miacom Diagnostics GmbH, priority 2008, dated 2013).
Read-outs that look alike come from different tables or passages of the source. Positions of bridges follow the written chain, without caps; N, C: chain ends. Non-standard residues stand in square brackets, D forms with d. Residues, ends and D or L forms follow the SMILES beside them. *: point of attachment. NMePhe(4-NMe2) = CN[C@@H](Cc1ccc(N(C)C)cc1)C(=O)O; Pip(4-oxo) = O=C1CCN[C@H](C(=O)O)C1; Picolinoyl(3-OH) = O=C(c1ncccc1O)*; Phg = N[C@H](C(=O)O)c1ccccc1; dAbu = CC[C@@H](N)C(=O)O

Tested on: 23S rRNA
Conditions: cited from earlier work
[1] = 23S rRNA position 2611 "C to G", Chlamydomonas reinhardtii, Harris et al. 1989
[2] = 23S rRNA position 2611 "C to U", Chlamydomonas reinhardtii, Harris et al. 1989

Question: With `C[C@H]1O[C@H](O[C@H]2CC[C@H](n3ccc(NC(=O)c4ccc(NC(=O)[C@@](C)(N)CO)cc4)nc3=O)O[C@@H]2C)[C@H](O)[C@@H](O)[C@@H]1N(C)C` [Amicetin] as the molecule, how does the Phenotype (23S rRNA position 2438 U to A, Halobacterium halobium, Leviev 1994) read?
Answer: Amicetin resistance

Question: And the Phenotype (23S rRNA position 2438 U to C, Halobacterium halobium, Leviev 1994)?
Answer: Amicetin resistance.

Question: With `COc1ccc(C[C@H]2NC[C@H](O)[C@H]2OC(C)=O)cc1` [Animosycin] as the molecule, how does the Phenotype (23S rRNA position 2452 C to U, Halobacterium, Hummel 1987) read?
Answer: Animosycin resistance.

Question: And the Phenotype (23S rRNA position 2452 C to U, Tetrahymena thermophilia, Sweeney 1991)?
Answer: Animosycin resistance

Question: Which Phenotype (23S rRNA position 2447 G to C, Halobacterium halobium, Hummel 1987) does the source give for `COc1ccc(C[C@H]2NC[C@H](O)[C@H]2OC(C)=O)cc1` [Anisomycin] here?
Answer: resistance.

Question: What about the Phenotype (23S rRNA position 2453 A to C, Halobacterium halobium, Hummel 1987) of the same molecule?
Answer: Anisomycin resistance

Question: With `O=C(N[C@H](CO)[C@H](O)c1ccc([N+](=O)[O-])cc1)C(Cl)Cl` [CAM] as the molecule, how does the Phenotype (23S rRNA position 2505 G to C (with A1067U and thiostrepton), E. coli, Saarma 1992, 1993) read?
Answer: Hypersensitivity to CAM;

Question: Which results are given for `O=C(N[C@H](CO)[C@H](O)c1ccc([N+](=O)[O-])cc1)C(Cl)Cl` [Chloramphenicol]?
Answer: Phenotype (23S rRNA position 2061 G to A, Rat mitochondria): resistance; Phenotype (23S rRNA position 2062 A to C, Halobacterium halobium): resistance.; Phenotype (23S rRNA position 2447 G to A, Yeast mitochondria, Dujon 1980): resistance.; Phenotype (23S rRNA position 2451 A to U, Mouse mitochondria, Kearsey 1981): resistance.; Phenotype (23S rRNA position 2452 C to A, Human mitochondria, Blanc 1981): resistance.; Phenotype (23S rRNA position 2452 C to U, Halobacterium halobium, Mankin 1991): resistance.; Phenotype (23S rRNA position 2452 C to U, Mouse mitochondria, Slott 1983): resistance; Phenotype (23S rRNA position 2503 A to C, Yeast mitochondria, Dujon 1980): resistance; Phenotype (23S rRNA position 2504 U to C, Human mitochondria, Kearsey 1981): resistance; Phenotype (23S rRNA position 2504 U to C, Mouse mitochondria, Blanc 1981): resistance

Question: With `CC[C@H]1OC(=O)[C@H](C)[C@@H](O[C@H]2C[C@@](C)(OC)[C@@H](O)[C@H](C)O2)[C@H](C)[C@@H](O[C@@H]2O[C@H](C)C[C@H](N(C)C)[C@H]2O)[C@](C)(OC)C[C@@H](C)C(=O)[C@H](C)[C@@H](O)[C@]1(C)O` [Clarithomycin] as the molecule, how does the Phenotype (23S rRNA position 2059 A to G, Helicobacter pylori) read?
Answer: resistance.

Question: For `CC[C@H]1OC(=O)[C@H](C)[C@@H](O[C@H]2C[C@@](C)(OC)[C@@H](O)[C@H](C)O2)[C@H](C)[C@@H](O[C@@H]2O[C@H](C)C[C@H](N(C)C)[C@H]2O)[C@](C)(OC)C[C@@H](C)C(=O)[C@H](C)[C@@H](O)[C@]1(C)O` [Clarithromycin], which Phenotype (23S rRNA position 2058 A to G, Helicobacter pylori) is on record?
Answer: resistance

Question: Which Phenotype (23S rRNA double mutation (A2058U/G2032A), E. coli) does the source give for `CC[C@H]1OC(=O)[C@H](C)[C@@H](O[C@H]2C[C@@](C)(OC)[C@@H](O)[C@H](C)O2)[C@H](C)[C@@H](O[C@@H]2O[C@H](C)C[C@H](N(C)C)[C@H]2O)[C@](C)(O)C[C@@H](C)C(=O)[C@H](C)[C@@H](O)[C@]1(C)O` [Ery] here?
Answer: hs

Question: What about the Phenotype (23S rRNA double mutation (G2032A/A2058U), E. coli) of the same molecule?
Answer: hs

Question: And the Phenotype (23S rRNA double mutation (G2057A/C2661U), E. coli)?
Answer: Slightly Eryr;

Question: And the Phenotype [1]?
Answer: Eryr

Question: What about the Phenotype [2] of the same molecule?
Answer: Eryr

Question: What about the Phenotype (23S rRNA position 2611 "C to U", double mutation (C2611U/G2057A), E. coli, Vester et al. 1995) of the same molecule?
Answer: Slightly Eryr; reduced

Question: Which Phenotype (23S rRNA double deletion (1230/1231), E. coli) does the source give for `CC[C@H]1OC(=O)[C@H](C)[C@@H](O[C@H]2C[C@@](C)(OC)[C@@H](O)[C@H](C)O2)[C@H](C)[C@@H](O[C@@H]2O[C@H](C)C[C@H](N(C)C)[C@H]2O)[C@](C)(O)C[C@@H](C)C(=O)[C@H](C)[C@@H](O)[C@]1(C)O` [Erythromycin] here?
Answer: Erythromycin sensitive. a Double

Question: And the Phenotype (23S rRNA double mutant (C1207U/C1243U), E. coli)?
Answer: Erythromycin resistant. a Double

Question: And the Phenotype (23S rRNA double mutant (C1208U/C1243U), E. coli)?
Answer: Erythromycin resistant. a Double

Question: What about the Phenotype (23S rRNA double mutant (C1211U/C1208U), E. coli) of the same molecule?
Answer: Erythromycin sensitive. a Double

Question: What about the Phenotype (23S rRNA double mutant (C1221U/C1229U), E. coli) of the same molecule?
Answer: Erythromycin resistant. a Double

Question: And the Phenotype (23S rRNA double mutant (C1221U/C1233U), E. coli)?
Answer: Erythromycin resistant. a Double

Question: What about the Phenotype (23S rRNA double mutant (C1243U/C1221U), E. coli) of the same molecule?
Answer: Erythromycin resistant. a Double

Question: What about the Phenotype (23S rRNA double mutant (G1220A/G1239A), E. coli) of the same molecule?
Answer: Erythromycin resistant. a Double

Question: And the Phenotype (23S rRNA double mutant (G1232A/G1238A), E. coli)?
Answer: Erythromycin sensitive. a Double

Question: And the Phenotype (23S rRNA position 1233 C to U, E. coli)?
Answer: Erythromycin sensitive. a

Question: What about the Phenotype (23S rRNA position 1234 U to C, E. coli) of the same molecule?
Answer: Erythromycin sensitive. a

Question: And the Phenotype (23S rRNA position 1234 del1234/del1235, double mutant (U1234C/del1235), E. coli)?
Answer: Erythromycin sensitive. a Double

Question: What about the Phenotype (23S rRNA position 2058 A to G, Yeast mitochondria) of the same molecule?
Answer: resistance.

Question: And the Phenotype (23S rRNA position 2611 "C to G", Chlamydomonas reinhardtii, Gauthier et al. 1988)?
Answer: spiramycin resistance

Question: What about the Phenotype (23S rRNA position 2611 "C to G", Yeast mitochondria, Sor and Fukahara 1984) of the same molecule?
Answer: spiramycin resistance

Question: Which Phenotype (23S rRNA position 2032 G to A, Tobbaco chloroplasts) does the source give for `CCC[C@@H]1C[C@@H](C(=O)N[C@@H]([C@H]2O[C@H](SC)[C@H](O)[C@@H](O)[C@H]2O)[C@@H](C)O)N(C)C1` [Lincomycin] here?
Answer: resistance.

Question: And the Phenotype (23S rRNA position 2058 A to G, Chlamydomonas reinhardtii)?
Answer: resistance.

Question: And the Phenotype (23S rRNA position 2058 A to G, Solanum nigrum)?
Answer: resistance.

Question: And the Phenotype (23S rRNA position 2058 A to G, Tobacco chloroplasts)?
Answer: resistance.

Question: And the Phenotype (23S rRNA position 2059 A to G, Tobacco chloroplasts)?
Answer: resistance.

Question: For `CSC[S@+]([O-])C[C@H](CO)NC(=O)/C=C/c1c(C)[nH]c(=O)[nH]c1=O` [Sparsomycin], which Phenotype (23S rRNA position 2499 C to U, Halobacterium halobium, Tan 1996) is on record?
Answer: resistance

Question: For `O=C(N[C@H](CO)[C@H](O)c1ccc([N+](=O)[O-])cc1)C(Cl)Cl` [chloramphenicol], which Phenotype (23S rRNA position 2505 G to A, E. coli, Hansen 1999) is on record?
Answer: Conferred resistance to

Question: Which Phenotype (23S rRNA double mutant (A1262G/U2017C), E. coli, growth on erythromycin) does the source give for `CC[C@H]1OC(=O)[C@H](C)[C@@H](O[C@H]2C[C@@](C)(OC)[C@@H](O)[C@H](C)O2)[C@H](C)[C@@H](O[C@@H]2O[C@H](C)C[C@H](N(C)C)[C@H]2O)[C@](C)(O)C[C@@H](C)C(=O)[C@H](C)[C@@H](O)[C@]1(C)O` [erythromycin] here?
Answer: Wild-type growth on

Question: And the Phenotype (23S rRNA double mutant (A1262U/U2017A), E. coli, growth on erythromycin)?
Answer: Wild-type growth on

Question: And the Phenotype (23S rRNA double mutant (G1137A/G1138C), E. coli, with 2058G and erythromycin, expressed from rrnB promoter)?
Answer: lethal when expressed from rrnB

Question: And the Phenotype (23S rRNA position 1068 G to A, E. coli, with 2058G, expressed from rrnB or pL promotor in presence of erythromycin)?
Answer: 2058G) Lethal when

Question: What about the Phenotype (23S rRNA position 1072 C to U, E. coli, expressed from rrnB or pL promotor in presence of erythromycin) of the same molecule?
Answer: Lethal when expressed from

Question: And the Phenotype (23S rRNA position 1137 G to A, E. coli, with 2058G and erythromycin, expressed from rrnB promoter)?
Answer: lethal when expressed from rrnB

Question: What about the Phenotype (23S rRNA position 1138 G to C, E. coli, with 2058G and erythromycin, expressed from rrnB promoter) of the same molecule?
Answer: lethal when expressed from rrnB

Question: And the Phenotype (23S rRNA position 1262 A to C, E. coli, with erythromycin)?
Answer: With erythromycin; lethal

Question: And the Phenotype (23S rRNA position 1262 A to G, E. coli, with erythromycin)?
Answer: With erythromycin; lethal

Question: With `CCC[C@@H]1C[C@@H](C(=O)N[C@@H]([C@H]2O[C@H](SC)[C@H](O)[C@@H](O)[C@H]2O)[C@@H](C)O)N(C)C1` [lincomycin] as the molecule, how does the Phenotype [1] read?
Answer: low level

Question: What about the Phenotype [2] of the same molecule?
Answer: low level

Question: With `CC[C@H]1NC(=O)[C@@H](NC(=O)c2ncccc2O)[C@@H](C)OC(=O)[C@H](c2ccccc2)NC(=O)[C@@H]2CC(=O)CCN2C(=O)[C@H](Cc2ccc(N(C)C)cc2)N(C)C(=O)[C@@H]2CCCN2C1=O` [pristinamycin 1A] ({Picolinoyl(3-OH)}-T[dAbu]P[NMePhe(4-NMe2)][Pip(4-oxo)][Phg]; ester 1-C) as the molecule, how does the Phenotype (23S rRNA A2602C/C2501A, E. coli, binding on peptidyl transferase loop, Porse 1999) read?
Answer: Inhibits binding of 1A

Question: What about the Phenotype (23S rRNA U2500A/C2501A, E. coli, binding on peptidyl transferase loop, Porse 1999) of the same molecule?
Answer: Inhibits binding of 1A

Question: With `CSC[S@+]([O-])C[C@H](CO)NC(=O)/C=C/c1c(C)[nH]c(=O)[nH]c1=O` [sparsomycin] as the molecule, how does the “Phenotype (level of resistance)” value (23S rRNA position 2452 C to U, Halobacterium halobium, Tan 1996) read?
Answer: Low level sparsomycin
